In PubChem BioAssay AID248 (DTP/NCI, 2004):
Inconclusive results and toxic doses are left out.

Tested on: L1210 leukemia ip in BDF1 mice, survival T/C
Assay: NCI In Vivo Anticancer Drug Screen. Data for tumor model L1210 Leukemia (intraperitoneal) in B6D2F1 (BDF1) mice
Conditions: endpoint: mean survival time, higher = longer survival
Outline: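 Each compound was tested against a transplantable tumor grown in mice. The endpoint was survival, with treated animals benchmarked against vehicle controls as a simple ratio.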

[1] = dose: 100.0 mg/kg/injection, schedule: Q04DX003 (ip), vehicle: saline
[2] = dose: 200.0 mg/kg/injection, schedule: Q04DX003 (ip), vehicle: saline
[3] = dose: 400.0 mg/kg/injection, schedule: Q04DX003 (ip), vehicle: saline
[4] = dose: 100.0 mg/kg/injection, schedule: Q01DX009 (ip), vehicle: saline with Tween-80
[5] = dose: 200.0 mg/kg/injection, schedule: Q01DX009 (ip), vehicle: saline with Tween-80
[6] = dose: 400.0 mg/kg/injection, schedule: Q01DX009 (ip), vehicle: saline with Tween-80

For NC(=O)SCC(N)C(=O)O (centres undefined), the T/C (dose: 50.0 mg/kg/injection, schedule: Q01DX001 (ip), vehicle: carboxymethylcellulose (CMC)) was 101 % of control, the T/C (dose: 100.0 mg/kg/injection, schedule: Q01DX001 (ip), vehicle: carboxymethylcellulose (CMC)) was 90 % of control and the T/C [1] was 104 % of control. For the same compound, the T/C (dose: 200.0 mg/kg/injection, schedule: Q01DX001 (ip), vehicle: carboxymethylcellulose (CMC)) was 95 % of control, the T/C [2] was 110 % of control and the T/C (dose: 400.0 mg/kg/injection, schedule: Q01DX001 (ip), vehicle: carboxymethylcellulose (CMC)) was 101 % of control. For the same compound, the T/C [3] was 116 % of control.

In the case of CC1CCC2(O)C(O)CCCC2(C)C1C (centres undefined), the T/C (dose: 50.0 mg/kg/injection, schedule: Q01DX009 (ip), vehicle: saline with Tween-80) is reported as 92 % of control, the T/C [4] is reported as 89 % of control and the T/C [5] is reported as 92 % of control.

For O=C1C=CCC2c3nc4ccccc4cc3CN12 (centres undefined), the T/C (dose: 37.5 mg/kg/injection, schedule: Q04DX003 (ip), vehicle: saline) was 95 % of control, the T/C (dose: 75.0 mg/kg/injection, schedule: Q04DX003 (ip), vehicle: saline) was 93 % of control and the T/C (dose: 150.0 mg/kg/injection, schedule: Q04DX003 (ip), vehicle: saline) was 95 % of control.

For COc1ccc(OC)c(NC(=O)Nc2ccc(N(C)C)cc2)c1, the T/C (dose: 100.0 mg/kg/injection, schedule: Q04DX003 (ip), vehicle: Klucel (hydroxypropylcellulose) (HPC)) was 93 % of control, the T/C (dose: 200.0 mg/kg/injection, schedule: Q04DX003 (ip), vehicle: Klucel (hydroxypropylcellulose) (HPC)) was 97 % of control and the T/C (dose: 400.0 mg/kg/injection, schedule: Q04DX003 (ip), vehicle: Klucel (hydroxypropylcellulose) (HPC)) was 95 % of control.

CCOC(=O)CC#N was tested, and the T/C [1] was 103 % of control, the T/C [2] was 103 % of control and the T/C [3] was 102 % of control.

With CC1C(C)(C)P(=O)(NCCOP2(=O)C(C)(C)C(C)C2(C)C)C1(C)C (centres undefined) the T/C [1] was 100 % of control, the T/C [2] was 92 % of control and the T/C [3] was 96 % of control.

In the case of CCOC(=O)CCC(C(=O)OCC)C(=O)OCC, the T/C [4] is reported as 86 % of control, the T/C (dose: 100.0 mg/kg/injection, schedule: Q04DX003 (ip), vehicle: saline with Tween-80) is reported as 106 % of control and the T/C [5] is reported as 88 % of control. The T/C (dose: 200.0 mg/kg/injection, schedule: Q04DX003 (ip), vehicle: saline with Tween-80) was 103 % of control, the T/C [6] was 88 % of control and the T/C (dose: 400.0 mg/kg/injection, schedule: Q04DX003 (ip), vehicle: saline with Tween-80) was 94 % of control.

Cc1cc(=O)[nH]c(O)c1C#N was tested, and the T/C [4] was 98 % of control, the T/C [5] was 108 % of control and the T/C [6] was 98 % of control.

With Cc1ccn(C)n1 the T/C (dose: 100.0 mg/kg/injection, schedule: Q04DX002 (ip), vehicle: saline) was 103 % of control, the T/C (dose: 200.0 mg/kg/injection, schedule: Q04DX002 (ip), vehicle: saline) was 97 % of control and the T/C (dose: 400.0 mg/kg/injection, schedule: Q04DX002 (ip), vehicle: saline) was 93 % of control.

COCCCN=C(N)c1ccc(NC(=O)c2ccc(C(=O)Nc3ccc(C(N)=NCCCOC)cc3)c(Cl)c2)cc1 was tested, and the T/C (dose: 0.47 mg/kg/injection, schedule: Q01DX Z (ip), vehicle: saline) was 92 % of control, the T/C (dose: 0.94 mg/kg/injection, schedule: Q01DX Z (ip), vehicle: saline) was 91 % of control and the T/C (dose: 1.88 mg/kg/injection, schedule: Q01DX Z (ip), vehicle: saline) was 94 % of control. For the same compound, the T/C (dose: 3.75 mg/kg/injection, schedule: Q01DX Z (ip), vehicle: saline) was 111 % of control, the T/C (dose: 7.5 mg/kg/injection, schedule: Q01DX Z (ip), vehicle: saline) was 171 % of control and the T/C (dose: 7.5 mg/kg/injection, schedule: Q01DX Z (oral), vehicle: saline) was 103 % of control. For the same compound, the T/C (dose: 15.0 mg/kg/injection, schedule: Q01DX Z (ip), vehicle: saline) was 89 % of control, the T/C (dose: 15.0 mg/kg/injection, schedule: Q01DX Z (oral), vehicle: saline) was 111 % of control and the T/C (dose: 30.0 mg/kg/injection, schedule: Q01DX Z (oral), vehicle: saline) was 94 % of control. The T/C (dose: 60.0 mg/kg/injection, schedule: Q01DX Z (oral), vehicle: saline) was 102 % of control.
